Experiments:
S. pneumoniae D39V [1] = assay: fitness (endpoint OD595 vs no drug) (fraction); higher = more growth
Summary of the method: (§1)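 Bacterial growth was followed in 384-well plates seeded at OD595 0.01, with 30 µl per well, or 55 µl for S. pneumoniae, in TSB, LB Lennox or CY at 37 °C. OD595 was read every 30 min for 14 h, and each reading had the first reading subtracted as background. Fitness is the background-corrected optical density at entry into stationary phase divided by the robust mean of the no-drug control wells. This ratio is capped at 1.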

S. aureus Newman [2] = assay: as above
Summary of the method: as §1

S. aureus DSM 20231 [3] = assay: as above
Summary of the method: as §1

B. subtilis 168 [4] = assay: as above
Summary of the method: as §1

S. pneumoniae D39V [5] = assay: Bliss interaction score (quartile over a dose matrix) (fitness difference); higher = more antagonism (negative = synergy)
Summary of the method: (§2)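 Fitness was defined as normalised growth: OD595 at the start of stationary phase divided by the plate's robust no-drug mean and capped at 1. Single-drug fitness was inferred from combination measurements. The Bliss score is observed fitness minus the product of the single-drug values, summarised by quartiles across technical, biological and donor/recipient replicates.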

S. aureus Newman [6] = assay: as above
Summary of the method: as §2

S. aureus DSM 20231 [7] = assay: as above
Summary of the method: as §2

B. subtilis 168 [8] = assay: as above
Summary of the method: as §2
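Wherever Bliss interaction score (quartile over a dose matrix) is given: first quartile when negative (synergy) and third quartile when positive (antagonism).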

CO/N=C(\C(=O)N[C@@H]1C(=O)N2C(C(=O)O)=C(COC(C)=O)CS[C@H]12)c1csc(N)n1 [Cefotaxime] + COc1ccc(C[C@H](N)C(=O)N[C@H]2[C@@H](O)[C@H](n3cnc4c(N(C)C)ncnc43)O[C@@H]2CO)cc1 [Puromycin]
fitness
Conditions | partner 0.39 µg/mL | partner 0.78 µg/mL | partner 1 µg/mL | partner 1.56 µg/mL | partner 2 µg/mL | partner 4 µg/mL
B. subtilis 168 [4], first compound 0.5 µg/mL | 0.267 | 0.284 | – | 0.312 | – | –
B. subtilis 168 [4], first compound 1 µg/mL | 0.144 | 0.147 | – | 0.169 | – | –
B. subtilis 168 [4], first compound 2 µg/mL | 0.113 | 0.125 | – | 0.147 | – | –
S. aureus DSM 20231 [3], first compound 0.078 µg/mL | 0.748 | 0.774 | – | 0.833 | – | –
S. aureus DSM 20231 [3], first compound 0.156 µg/mL | 0.72 | 0.781 | – | 0.796 | – | –
S. aureus DSM 20231 [3], first compound 0.312 µg/mL | 0.644 | 0.689 | – | 0.712 | – | –
S. aureus Newman [2], first compound 0.078 µg/mL | 0.739 | 0.729 | – | 0.782 | – | –
S. aureus Newman [2], first compound 0.156 µg/mL | 0.633 | 0.698 | – | 0.702 | – | –
S. aureus Newman [2], first compound 0.312 µg/mL | 0.408 | 0.456 | – | 0.437 | – | –
S. pneumoniae D39V [1], first compound 0.0018 µg/mL | – | – | 0.973 | – | ≥ 1 | 0.885
S. pneumoniae D39V [1], first compound 0.0035 µg/mL | – | – | 0.931 | – | 0.975 | 0.766
S. pneumoniae D39V [1], first compound 0.007 µg/mL | – | – | 0.93 | – | 0.919 | 0.662

fitness, one replicate
Conditions | partner 0.39 µg/mL | partner 0.78 µg/mL | partner 1.56 µg/mL | partner 3.12 µg/mL | partner 6.24 µg/mL
B. subtilis 168 [4], first compound 0.00775 µg/mL | 0.887 | 0.903 | 0.816 | – | –
B. subtilis 168 [4], first compound 0.0155 µg/mL | 0.71 | 0.726 | 0.668 | – | –
B. subtilis 168 [4], first compound 0.031 µg/mL | 0.558 | 0.574 | 0.616 | – | –
S. aureus DSM 20231 [3], first compound 0.039 µg/mL | 0.811 | 0.79 | 0.806 | – | –
S. aureus DSM 20231 [3], first compound 0.078 µg/mL | – | – | – | 0.895 | 0.653
S. aureus DSM 20231 [3], first compound 0.156 µg/mL | – | – | – | 0.841 | 0.646
S. aureus DSM 20231 [3], first compound 0.312 µg/mL | – | – | – | 0.808 | 0.417
S. aureus Newman [2], first compound 0.039 µg/mL | 0.734 | 0.771 | 0.719 | – | –
S. aureus Newman [2], first compound 0.625 µg/mL | 0.0309 | 0.0612 | 0.0601 | – | –
S. aureus Newman [2], first compound 1.25 µg/mL | 0.0598 | 0.0843 | 0.0641 | – | –
S. aureus Newman [2], first compound 2.5 µg/mL | 0.0418 | 0.0601 | 0.0425 | – | –

Conditions | Bliss interaction score
B. subtilis 168 [8] | 0.104
S. aureus DSM 20231 [7] | 0.0471
S. aureus Newman [6] | 0.0762
S. pneumoniae D39V [5] | 0.11

C[C@@H]1O[C@@H]1P(=O)(O)O [Fosfomycin] + CN[C@H](CC(C)C)C(=O)N[C@H]1C(=O)N[C@@H](CC(N)=O)C(=O)N[C@H]2C(=O)N[C@H]3C(=O)N[C@H](C(=O)N[C@H](C(=O)O)c4cc(O)cc(O)c4-c4cc3ccc4O)[C@H](O)c3ccc(c(Cl)c3)Oc3cc2cc(c3O[C@@H]2O[C@H](CO)[C@@H](O)[C@H](O)[C@H]2O[C@H]2C[C@](C)(N)[C@H](O)[C@H](C)O2)Oc2ccc(cc2Cl)[C@H]1O [Vancomycin]
Conditions | fitness
S. aureus DSM 20231 [3], first compound 0.781 µg/mL, partner 0.1875 µg/mL | 0.757
S. aureus DSM 20231 [3], first compound 0.781 µg/mL, partner 0.375 µg/mL | 0.751
S. aureus DSM 20231 [3], first compound 0.781 µg/mL, partner 0.75 µg/mL | 0.757
S. aureus DSM 20231 [3], first compound 1.562 µg/mL, partner 0.1875 µg/mL | 0.596
S. aureus DSM 20231 [3], first compound 1.562 µg/mL, partner 0.375 µg/mL | 0.638
S. aureus DSM 20231 [3], first compound 1.562 µg/mL, partner 0.75 µg/mL | 0.624
S. aureus DSM 20231 [3], first compound 3.124 µg/mL, partner 0.1875 µg/mL | 0.525
S. aureus DSM 20231 [3], first compound 3.124 µg/mL, partner 0.375 µg/mL | 0.546
S. aureus DSM 20231 [3], first compound 3.124 µg/mL, partner 0.75 µg/mL | 0.542
S. aureus Newman [2], first compound 0.781 µg/mL, partner 0.1875 µg/mL | 0.649
S. aureus Newman [2], first compound 0.781 µg/mL, partner 0.375 µg/mL | 0.628
S. aureus Newman [2], first compound 0.781 µg/mL, partner 0.75 µg/mL | 0.655
S. aureus Newman [2], first compound 1.562 µg/mL, partner 0.1875 µg/mL | 0.555
S. aureus Newman [2], first compound 1.562 µg/mL, partner 0.375 µg/mL | 0.563
S. aureus Newman [2], first compound 1.562 µg/mL, partner 0.75 µg/mL | 0.548
S. aureus Newman [2], first compound 3.124 µg/mL, partner 0.1875 µg/mL | 0.279
S. aureus Newman [2], first compound 3.124 µg/mL, partner 0.375 µg/mL | 0.255
S. aureus Newman [2], first compound 3.124 µg/mL, partner 0.75 µg/mL | 0.245
S. pneumoniae D39V [1], first compound 1.25 µg/mL, partner 0.03125 µg/mL | 0.97
S. pneumoniae D39V [1], first compound 1.25 µg/mL, partner 0.0625 µg/mL | 0.916
S. pneumoniae D39V [1], first compound 1.25 µg/mL, partner 0.125 µg/mL | 0.905
S. pneumoniae D39V [1], first compound 1.25 µg/mL, partner 0.5 µg/mL | 0.0887
S. pneumoniae D39V [1], first compound 2.5 µg/mL, partner 0.03125 µg/mL | 0.87
S. pneumoniae D39V [1], first compound 2.5 µg/mL, partner 0.0625 µg/mL | 0.869
S. pneumoniae D39V [1], first compound 2.5 µg/mL, partner 0.125 µg/mL | 0.888
S. pneumoniae D39V [1], first compound 2.5 µg/mL, partner 0.5 µg/mL | 0.0855
S. pneumoniae D39V [1], first compound 5 µg/mL, partner 0.03125 µg/mL | 0.719
S. pneumoniae D39V [1], first compound 5 µg/mL, partner 0.0625 µg/mL | 0.726
S. pneumoniae D39V [1], first compound 5 µg/mL, partner 0.25 µg/mL | 0.255
S. pneumoniae D39V [1], first compound 5 µg/mL, partner 0.5 µg/mL | 0.0851

Conditions | Bliss interaction score
B. subtilis 168 [8] | 0.029
S. aureus DSM 20231 [7] | 0.0454
S. aureus Newman [6] | 0.103
S. pneumoniae D39V [5] | -0.0646

C[C@@H]1O[C@@H]1P(=O)(O)O [Fosfomycin] + Cn1nnc(-c2ccc(-c3ccc(N4C[C@H](CO)OC4=O)cc3F)cn2)n1 [Tedizolid]
fitness
Conditions | partner 0.03125 µg/mL | partner 0.0625 µg/mL | partner 0.125 µg/mL | partner 0.25 µg/mL | partner 0.5 µg/mL
S. aureus DSM 20231 [3], first compound 0.781 µg/mL | – | 0.693 | 0.497 | 0.091 | –
S. aureus DSM 20231 [3], first compound 1.562 µg/mL | – | 0.66 | 0.372 | 0.0334 | –
S. aureus DSM 20231 [3], first compound 3.124 µg/mL | – | 0.493 | 0.202 | 0.0354 | –
S. aureus Newman [2], first compound 0.781 µg/mL | – | 0.52 | – | – | –
S. aureus Newman [2], first compound 1.562 µg/mL | – | – | – | 0.101 | –
S. aureus Newman [2], first compound 3.124 µg/mL | – | 0.106 | 0.0423 | 0.0102 | –
S. pneumoniae D39V [1], first compound 1.25 µg/mL | 0.951 | 0.95 | 0.813 | 0.43 | 0.138
S. pneumoniae D39V [1], first compound 2.5 µg/mL | 0.936 | 0.906 | 0.792 | 0.455 | 0.132
S. pneumoniae D39V [1], first compound 5 µg/mL | 0.89 | 0.911 | 0.783 | 0.437 | 0.151

Conditions | Bliss interaction score
B. subtilis 168 [8] | 0.0967
S. aureus DSM 20231 [7] | 0.069
S. aureus Newman [6] | -0.128
S. pneumoniae D39V [5] | 0.0919

From the supplement of paper PMC10627819
